{
  "source": "patent US9974792B2",
  "about": "“Methods for treating cancers” (Gilead Sciences, Inc., priority 2013, dated 2018)",
  "key": {"[1]": {"assay": "Example 2: entospletinib plasma pharmacokinetics", "format": "in vivo, human", "details": "800 mg twice a day, fasted", "excerpt": "Clinic visits, including laboratory tests and pharmacodynamic measurements, were scheduled for day 1 of each 28-day cycle. Blood samples for pharmacokinetic analyses of entospletinib were collected on day 1 of each 28-day cycle, on days 8, 15, and 22 of cycle 1 and on day 15 of cycle 2. Additional safety monitoring visits took place on days 8, 15, and 22 of cycle 1 and day 15 of cycle 2."}, "[2]": {"system": "subjects with relapsed or refractory CLL", "experimental": "The safety and efficacy of entospletinib was tested in a phase 2 trial in separate cohorts of subjects with CLL, indolent non-Hodgkin lymphoma (iNHL), mantle cell lymphoma (MCL), or diffuse large B-cell lymphoma (DLBCL). This trial was registered at www.clinicaltrials.gov as #NCT01799889.\nA phase 2, open-label, single-agent study was completed to evaluate the efficacy, safety, tolerability, and pharmacodynamics of entospletinib in subjects with relapsed or refractory hematologic malignancies.\nSubjects who were at least 18 years of age with a documented diagnosis of CLL, as established by the International Workshop on CLL, with progressive disease (PD) were eligible for the study. […] The presence of radiographically measurable lymphadenopathy or extranodal lymphoid malignancy as assessed by computed tomography (CT) or magnetic resonance imaging (MRI) was required for enrollment. […] A Karnofsky performance status of at least 60% and a life expectancy of at least 3 months were required. Required screening laboratory data were collected within 5 weeks before administration of study drug. Subjects with any degree of neutropenia, thrombocytopenia, or anemia attributed to the malignancy by the treating physician were eligible to enroll.\nTreatment with entospletinib was at a dose of 800 mg twice a day over 28-day cycles under fasted conditions. Fasting was defined as no food or liquids other than water for 2 hours pre- and 1 hour post-dose.\nCT or MRI scans were used to document sites of disease, identify target lesions, and assess response and disease progression. […] The findings of an independent review committee were used for analyses of PFS and other tumor control end points.\nSecondary end points included tolerability, objective response rate (ORR), duration of response (DOR), time to response, and lymph node response rate. […] Exploratory end points included plasma drug concentrations and pharmacodynamic biomarkers.\nPFS was defined as the interval from start of treatment to disease progression or death from any cause and analyzed using Kaplan-Meier methods. The findings of the Independent Review Committee (IRC) were considered primary for analyses of PFS and other tumor control responses. […] DOR was defined as the time from when the first response (CR or PR) was achieved until the earlier of the first documentation of definitive disease progression or death from any cause."}, "[3]": {"system": "phosphorylated Blnk in CD19+CD5+ circulating tumor cells", "assay": "Example 1: BCR-mediated signaling, intracellular phosphoprotein flow cytometry", "format": "in vivo, human", "details": "Days 8 and 29 vs Day 1; CLL subjects (n=35)", "excerpt": "(§1) Nominal p-values from tests of mean change of Day 8 and 29 from Day 1 using mixed model for repeated measures are <0.0005."}, "[4]": {"system": "phosphorylated Btk in CD19+CD5+ circulating tumor cells", "assay": "Example 1: BCR-mediated signaling, intracellular phosphoprotein flow cytometry", "format": "in vivo, human", "details": "Days 8 and 29 vs Day 1; CLL subjects (n=35)", "excerpt": "as §1"}, "[5]": {"system": "phosphorylated Syk in CD19+CD5+ circulating tumor cells", "assay": "Example 1: BCR-mediated signaling, intracellular phosphoprotein flow cytometry", "format": "in vivo, human", "details": "Days 8 and 29 vs Day 1; CLL subjects (n=35)", "excerpt": "as §1"}},
  "data": [
    {"smiles": "c1cn2cc(-c3ccc4cn[nH]c4c3)nc(Nc3ccc(N4CCOCC4)cc3)c2n1", "note": "[compound of formula I, 6-(1H-indazol-6-yl)-N-(4-morpholinophenyl)imidazo[1,2-a]pyrazin-8-amine]", "values": [
      {"measurement": "Ctrough, mean (% coefficient of variation)", "setting": "[1]", "value": "1100 (44%) ng/mL"},
      {"measurement": "Cmax", "setting": "[1]; human, oral, read-out: Cmax, mean (% coefficient of variation)", "value": 1490, "unit": "ng/mL"},
      {"measurement": "DOR exceeded by seventy-five percent of subjects", "setting": "[2]; 23 responding CLL subjects", "value": "> 6.5", "unit": "months"},
      {"measurement": "median DOR", "setting": "[2]; 23 responding CLL subjects", "value": "not yet been reached"},
      {"measurement": "subjects achieving at least a 50% decrease in SPD from baseline", "setting": "[2]; 39 evaluable CLL subjects", "value": 61.5, "unit": "%"},
      {"measurement": "subjects achieving reduction in adenopathy", "setting": "[2]; 39 evaluable CLL subjects", "value": 94.5, "unit": "%"},
      {"measurement": "subjects with a less than 50% decrease in SPD from baseline", "setting": "[2]; 39 evaluable CLL subjects", "value": 33, "unit": "%"},
      {"measurement": "Discontinued study drug: AEs, %", "setting": "[2]; CLL N = 41", "value": "(8.8%)"},
      {"measurement": "Discontinued study drug: Death, %", "setting": "[2]; CLL N = 41", "value": "(2.4%)"},
      {"measurement": "Discontinued study drug: Progressive disease, %", "setting": "[2]; CLL N = 41", "value": "(34.1%)"},
      {"measurement": "PFS exceeded by seventy-five percent of the subjects", "setting": "[2]; CLL cohort", "value": "> 5.4", "unit": "months"},
      {"measurement": "death (PFS event), %", "setting": "[2]; CLL cohort, 41 subjects", "value": 2.4, "unit": "%"},
      {"measurement": "subjects with PFS events, %", "setting": "[2]; CLL cohort, 41 subjects", "value": 31.7, "unit": "%"},
      {"measurement": "subjects with disease progression, %", "setting": "[2]; CLL cohort, 41 subjects", "value": 29.3, "unit": "%"},
      {"measurement": "24 weeks PFS (primary end point)", "setting": "[2]; CLL cohort, 41 subjects, median follow up 5.5 months", "value": 69.8, "unit": "%"},
      {"measurement": "Median PFS", "setting": "[2]; CLL cohort, median follow up 5.5 months", "value": "not yet been reached"},
      {"measurement": "ORR", "setting": "[2]; CLL subjects", "value": 56.1, "unit": "%"},
      {"measurement": "subjects achieving a CR", "setting": "[2]; CLL subjects", "value": "no subject"},
      {"measurement": "subjects achieving a PR", "setting": "[2]; CLL subjects", "value": 23, "unit": "subjects"},
      {"measurement": "subjects with dose reduced to 400 mg", "setting": "[2]; CLL subjects", "value": 4.9, "unit": "%"},
      {"measurement": "subjects with dose reduced to 600 mg", "setting": "[2]; CLL subjects", "value": 14.6, "unit": "%"},
      {"measurement": "subjects with progressive disease (best response)", "setting": "[2]; CLL subjects", "value": 2.4, "unit": "%"},
      {"measurement": "subjects with stable disease", "setting": "[2]; CLL subjects", "value": 44, "unit": "%"},
      {"measurement": "time for mean absolute lymphocyte count to return to baseline", "setting": "[2]; CLL subjects", "value": "approximately 3 months"},
      {"measurement": "nodal response (50% reduction in SPD) with persistent lymphocytosis, %", "setting": "[2]; CLL subjects with stable disease", "value": 4.9, "unit": "%"},
      {"measurement": "nodal response with persistent lymphocytosis, subjects", "setting": "[2]; CLL subjects, additional to ORR", "value": 2, "unit": "subjects"},
      {"measurement": "subjects requiring at least one dose reduction from the starting dose", "setting": "[2]; CLL subjects, starting dose 800 mg twice a day", "value": 19.5, "unit": "%"},
      {"measurement": "mean absolute lymphocyte count", "setting": "[2]; day 8, rose from 50,090", "value": "72,980 lymphocytes per microliter"},
      {"measurement": "responding subjects with a PR at the first post-baseline evaluation", "setting": "[2]; of 23 responding subjects, scheduled at week 8", "value": 65.2, "unit": "%"},
      {"measurement": "differences in ORR within subgroups", "setting": "[2]; sex, age, number of prior therapies, IGHV mutation status, 17p deletion/TP53 mutation status", "value": "no significant differences"},
      {"measurement": "phosphorylated Blnk in CD19+CD5+ circulating tumor cells", "setting": "[3]", "value": "downregulation"},
      {"measurement": "phosphorylated Btk in CD19+CD5+ circulating tumor cells", "setting": "[4]", "value": "downregulation"},
      {"measurement": "phosphorylated Syk in CD19+CD5+ circulating tumor cells", "setting": "[5]", "value": "downregulation"}
    ]}
  ]
}
